Measured values as given in ChEMBL document CHEMBL1201862, “PubChem BioAssay data set” (2004).
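Cultured in 96-well plates, cells were exposed to test compound for 48 hours across five concentrations. Abbreviation: GI50, concentration required for 50% inhibition of growth.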 Active and inactive are the calls of the source. Cut-off read from the data, not from the text of the source: active = GI50 up to about 1.1 µM and inactive = higher.

Legend:
Assay in all cases: DTP human tumour cell line panel, 48 h
[1] = tested on: CCRF-CEM
[2] = tested on: COLO 205
[3] = tested on: EKVX
[4] = tested on: HCT-15
[5] = tested on: MDA-MB-231
[6] = tested on: Malme-3M
[7] = tested on: NCI-H460
[8] = tested on: NCI-H522
[9] = tested on: OVCAR-4
[10] = tested on: OVCAR-5
[11] = tested on: OVCAR-8
[12] = tested on: SF-268
[13] = tested on: SNB-19
[14] = tested on: SR
[15] = tested on: SW-620
[16] = tested on: T47D
[17] = tested on: LXFL 529

SMILES | GI50 [1] | GI50 [2] | GI50 [3] | GI50 [4] | GI50 [5] | GI50 [6] | GI50 [7] | GI50 [8] | GI50 [9] | GI50 [10] | GI50 [11] | GI50 [12] | GI50 [13] | GI50 [14] | GI50 [15] | GI50 [16] | GI50 [17]
COc1ccc(C(=O)CC(c2ccc(OC)c(OC)c2)c2c(O)oc3ccccc3c2=O)cc1OC (stereo unspecified) | > 100 µM (inactive) | > 100 µM (inactive) | > 100 µM (inactive) | > 100 µM | > 100 µM (inactive) | > 100 µM (inactive) | > 100 µM (inactive) | > 100 µM (inactive) | > 100 µM (inactive) | > 100 µM (inactive) | > 100 µM (inactive) | > 100 µM (inactive) | > 100 µM (inactive) | > 100 µM (inactive) | > 100 µM (inactive) | > 100 µM (inactive) | –
Cc1nn(C(=O)c2ccccc2O)c2c1C(c1ccc([N+](=O)[O-])cc1)SC(=N)N2 (stereo unspecified) | 3.32 µM (inactive) | > 8.61 µM (inactive) | > 10 µM (inactive) | 5.14 µM | > 5.94 µM (inactive) | 4.42 µM (inactive) | 3.79 µM (inactive) | 5.6 µM (inactive) | 3.56 µM (inactive) | > 7.76 µM (inactive) | 4 µM (inactive) | 6.68 µM (inactive) | 6.05 µM (inactive) | 4.83 µM (inactive) | 6.17 µM (inactive) | 5.71 µM (inactive) | –
COC(=O)CC1C=CC(C)(OC)OO1 (stereo unspecified) | 15.7 µM (inactive) | 55.7 µM (inactive) | > 100 µM (inactive) | 39.4 µM | > 100 µM (inactive) | 78.7 µM (inactive) | 4.84 µM (inactive) | 16.9 µM (inactive) | 97.9 µM (inactive) | > 100 µM (inactive) | > 100 µM (inactive) | > 100 µM (inactive) | > 100 µM (inactive) | 58.5 µM (inactive) | 27.2 µM (inactive) | > 100 µM (inactive) | –
Cc1ccc(N)c(S)c1 | 18 µM (inactive) | 22.7 µM (inactive) | 16.2 µM (inactive) | 16.7 µM | 17.1 µM (inactive) | 30.5 µM (inactive) | 22 µM (inactive) | 17.9 µM (inactive) | 20 µM (inactive) | 22.3 µM (inactive) | 17.1 µM (inactive) | 20.8 µM (inactive) | 21.1 µM (inactive) | 18 µM (inactive) | 17.6 µM (inactive) | 14.8 µM (inactive) | –
CN(C)CCCNc1ccc2nnn3c4ccc(OC(=O)c5ccccc5)cc4c(=O)c1c23 | 1.08 µM (active) | 14 µM (inactive) | 4.24 µM (inactive) | 5.36 µM | 10.4 µM (inactive) | 11.5 µM (inactive) | 0.76 µM (active) | 2.84 µM (inactive) | 1.66 µM (inactive) | 14.4 µM (inactive) | 4.55 µM (inactive) | 10.5 µM (inactive) | 10.9 µM (inactive) | 0.697 µM (active) | 4.53 µM (inactive) | 18.7 µM (inactive) | –
Cc1cccc(Br)[n+]1[O-] | > 100 µM (inactive) | > 100 µM (inactive) | > 100 µM (inactive) | > 100 µM | 91.6 µM (inactive) | > 100 µM (inactive) | > 100 µM (inactive) | > 100 µM (inactive) | > 100 µM (inactive) | > 100 µM (inactive) | > 100 µM (inactive) | > 100 µM (inactive) | > 100 µM (inactive) | > 100 µM (inactive) | > 100 µM (inactive) | > 100 µM (inactive) | –
N[C@@H](Cc1ccc2oc3cc(=O)c4ccccc4c-3nc2c1)C(=O)O | 38.5 µM (inactive) | 11.5 µM (inactive) | > 100 µM (inactive) | 57.4 µM | > 100 µM (inactive) | 3.37 µM (inactive) | 31.1 µM (inactive) | 39.7 µM (inactive) | > 100 µM (inactive) | > 100 µM (inactive) | 49 µM (inactive) | > 100 µM (inactive) | 26.4 µM (inactive) | 24.7 µM (inactive) | > 100 µM (inactive) | > 100 µM (inactive) | –
Cc1cccc2c1CC(C1OC(=O)c3ccccc31)C2=O (stereo unspecified) | > 100 µM (inactive) | > 100 µM (inactive) | > 100 µM (inactive) | > 100 µM | > 100 µM (inactive) | > 100 µM (inactive) | > 100 µM (inactive) | > 100 µM (inactive) | > 100 µM (inactive) | > 100 µM (inactive) | > 100 µM (inactive) | > 100 µM (inactive) | > 100 µM (inactive) | > 100 µM (inactive) | > 100 µM (inactive) | > 100 µM (inactive) | –
O=CC[C@H]1C(=O)C[C@@H]2CCC[C@@H]21 | 34.1 µM (inactive) | > 100 µM (inactive) | > 100 µM (inactive) | 45.7 µM | – | > 100 µM (inactive) | > 100 µM (inactive) | > 100 µM (inactive) | > 100 µM (inactive) | > 100 µM (inactive) | 43.1 µM (inactive) | 89.1 µM (inactive) | > 100 µM (inactive) | – | 46.9 µM (inactive) | – | 48 µM (inactive)
COc1ccc(N2C(=O)CC(=O)N(NC(=O)C(C)Oc3ccccc3C)C2=S)cc1 (stereo unspecified) | > 100 µM (inactive) | > 100 µM (inactive) | > 100 µM (inactive) | > 100 µM | > 100 µM (inactive) | > 100 µM (inactive) | > 100 µM (inactive) | > 100 µM (inactive) | > 100 µM (inactive) | > 100 µM (inactive) | > 100 µM (inactive) | > 100 µM (inactive) | > 100 µM (inactive) | > 100 µM (inactive) | > 100 µM (inactive) | > 100 µM (inactive) | –
O=c1cc(NNc2cccc3ccccc23)[nH]c(=O)[nH]1 | 10.1 µM (inactive) | 17.3 µM (inactive) | 14.6 µM (inactive) | 12.4 µM | 13.3 µM (inactive) | 17.8 µM (inactive) | 18.8 µM (inactive) | 14.8 µM (inactive) | 17.2 µM (inactive) | 17.2 µM (inactive) | 18 µM (inactive) | 16.4 µM (inactive) | 14.3 µM (inactive) | 2.61 µM (inactive) | 20 µM (inactive) | 10.2 µM (inactive) | –
C1=C\CCCCN2C[C@H]3CCCC/C=C\CCCCN4CC[C@@H]([C@H](CCCCCC/1)C4)[C@H](C3)C2 | 2.58 µM (inactive) | 2.07 µM (inactive) | 7.11 µM (inactive) | 1.77 µM | 0.979 µM (active) | 1.85 µM (inactive) | 1.76 µM (inactive) | 1.69 µM (inactive) | 1.62 µM (inactive) | 7.5 µM (inactive) | 2.84 µM (inactive) | 2.65 µM (inactive) | 2.06 µM (inactive) | 2.4 µM (inactive) | 2.44 µM (inactive) | 2.61 µM (inactive) | –
CC1NCCC(CC(=O)O)C1CC(=O)O (stereo unspecified) | > 100 µM (inactive) | > 100 µM (inactive) | > 100 µM (inactive) | > 100 µM | > 100 µM (inactive) | > 100 µM (inactive) | > 100 µM (inactive) | > 100 µM (inactive) | > 100 µM (inactive) | > 100 µM (inactive) | > 100 µM (inactive) | > 100 µM (inactive) | > 100 µM (inactive) | > 100 µM (inactive) | > 100 µM (inactive) | > 100 µM (inactive) | –
CCN(CC)CCn1c(=O)c2ccccc2n2c3c(=O)n(C)c(=O)n(C)c3nc12 | 0.547 µM (active) | 1.55 µM (inactive) | 3.59 µM (inactive) | 15.4 µM | 5.14 µM (inactive) | 2.07 µM (inactive) | 0.148 µM (active) | 2.43 µM (inactive) | 4.27 µM (inactive) | 2.53 µM (inactive) | 1.84 µM (inactive) | 2.07 µM (inactive) | 2.38 µM (inactive) | 0.177 µM (active) | 1.22 µM (inactive) | 2.15 µM (inactive) | –
Cc1ccc2c(c1)C(=O)/C(=N/Nc1ccc(Cl)cc1)CCO2 | 46.7 µM (inactive) | 63.5 µM (inactive) | > 100 µM (inactive) | 60 µM | > 100 µM (inactive) | 46.7 µM (inactive) | 92.9 µM (inactive) | 56.1 µM (inactive) | 80.4 µM (inactive) | 69.7 µM (inactive) | > 100 µM (inactive) | > 100 µM (inactive) | > 100 µM (inactive) | 44.8 µM (inactive) | > 100 µM (inactive) | 13.3 µM (inactive) | –
O=C1c2ccccc2C(=O)N1c1nc(-c2ccc(Cl)cc2)cc(N2N=C(c3ccc(Br)cc3)CC2c2ccccc2)n1 (stereo unspecified) | 4.13 µM (inactive) | 1.9 µM (inactive) | 0.792 µM (active) | 1.99 µM | 4.07 µM (inactive) | > 44.7 µM (inactive) | 4.36 µM (inactive) | 2.09 µM (inactive) | 4.23 µM (inactive) | 1.04 µM (active) | 3.35 µM (inactive) | 2.7 µM (inactive) | 4.86 µM (inactive) | 0.65 µM (active) | 2.53 µM (inactive) | 1.88 µM (inactive) | –
FC(F)(F)C1(c2ccccc2)SCc2nc3ccccc3n21 (stereo unspecified) | 88.1 µM (inactive) | > 100 µM (inactive) | > 100 µM (inactive) | 78.7 µM | > 100 µM (inactive) | > 100 µM (inactive) | 80.9 µM (inactive) | 55.6 µM (inactive) | > 100 µM (inactive) | > 100 µM (inactive) | > 100 µM (inactive) | > 100 µM (inactive) | > 100 µM (inactive) | 35.2 µM (inactive) | > 100 µM (inactive) | 62.8 µM (inactive) | –
c1ccc([P+](CCCCCC[P+](c2ccccc2)(c2ccccc2)c2ccccc2)(c2ccccc2)c2ccccc2)cc1 | 13.1 µM (inactive) | 2.68 µM (inactive) | 54.5 µM (inactive) | > 100 µM | 12.8 µM (inactive) | 37.3 µM (inactive) | 9.38 µM (inactive) | 7.24 µM (inactive) | 23.3 µM (inactive) | 34.3 µM (inactive) | 13.3 µM (inactive) | 3.49 µM (inactive) | 0.906 µM (active) | 21.1 µM (inactive) | 18.5 µM (inactive) | 4.92 µM (inactive) | –
